How the values were obtained:
[1] = Cockshott et al. 1991; cited from earlier work
androgen receptor (AR) = target: T1, androgen receptor (AR) (Rattus norvegicus, UniProt P15207); experiment: AR competitive binding with 3H-mibolerone in cytosol
T1 construct: The minimum concentration of ^3H-MIB to saturate AR sites in the cytosol preparation was 1 nM; from tissue; host or cells: cytosol
T1 sequence (P15207 1-902): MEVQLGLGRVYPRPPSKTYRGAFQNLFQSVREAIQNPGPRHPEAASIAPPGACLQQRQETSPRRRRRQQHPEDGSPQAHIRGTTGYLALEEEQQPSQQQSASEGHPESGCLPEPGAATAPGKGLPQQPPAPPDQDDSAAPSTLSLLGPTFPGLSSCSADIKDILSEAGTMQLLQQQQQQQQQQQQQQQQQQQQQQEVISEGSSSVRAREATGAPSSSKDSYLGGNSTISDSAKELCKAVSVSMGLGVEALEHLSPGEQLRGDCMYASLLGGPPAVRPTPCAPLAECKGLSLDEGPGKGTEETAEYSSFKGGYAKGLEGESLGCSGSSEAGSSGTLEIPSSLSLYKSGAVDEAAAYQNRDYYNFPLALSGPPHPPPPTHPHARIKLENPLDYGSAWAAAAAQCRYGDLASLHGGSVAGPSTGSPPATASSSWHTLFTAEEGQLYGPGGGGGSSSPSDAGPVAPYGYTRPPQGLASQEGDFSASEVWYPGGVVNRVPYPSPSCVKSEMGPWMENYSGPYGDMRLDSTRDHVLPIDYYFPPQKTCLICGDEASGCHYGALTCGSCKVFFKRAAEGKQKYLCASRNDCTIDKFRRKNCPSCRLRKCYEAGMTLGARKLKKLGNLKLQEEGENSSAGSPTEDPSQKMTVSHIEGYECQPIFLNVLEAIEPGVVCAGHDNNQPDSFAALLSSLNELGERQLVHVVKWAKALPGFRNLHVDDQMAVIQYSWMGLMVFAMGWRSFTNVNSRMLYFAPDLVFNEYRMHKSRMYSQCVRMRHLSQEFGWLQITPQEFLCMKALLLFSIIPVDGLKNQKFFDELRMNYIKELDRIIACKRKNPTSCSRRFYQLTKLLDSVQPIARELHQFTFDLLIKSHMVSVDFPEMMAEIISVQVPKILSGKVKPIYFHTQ
Method: For the determination of non-specific binding, separate experiments were conducted by adding 1,000 nM MIB to the incubate. Unless otherwise indicated, all experiments were repeated three times or more. […] Radioactivity was counted in a liquid scintillation counter (Model LS6800, Beckman Instruments Inc., Palo Alto, Calif.).
To determine the Kd of MIB, data were analyzed using a modified form of the Scatchard equation:
where B was the concentration of specifically-bound ^3H-MIB in the incubate, F was the concentration of free ^3H-MIB in the incubate, and Bmax was the maximum concentration of ^3H-MIB specifically bound to AR, which is also the concentration of available AR binding sites in the incubate. […]
For competition binding experiments, competitive displacement curves were constructed for each ligand with percent specific binding (specific binding of ^3H-MIB at a particular ligand concentration expressed as a percentage of the specific binding of ^3H-MIB in the absence of ligand) on the vertical axis and ligand concentration on the horizontal axis. […]
where B0 is the specific binding of ^3H-MIB in the absence of ligand, and C is the ligand concentration. Binding affinities of the ligands were then compared using the equilibrium dissociation constant (Ki) of each ligand, as calculated using the equation below: […]

| SMILES | share of radioactivity in plasma accounted for by parent compound [1] | Ki (androgen receptor (AR)) [nM] | Ki value lower than that of R-Bicalutamide (androgen receptor (AR); R-isomer) [%] |
| --- | --- | --- | --- |
| CC(O)(CS(=O)(=O)c1ccc(F)cc1)C(=O)Nc1ccc(C#N)c(C(F)(F)F)c1 (racemic) [racemic ^14C-labeled bicalutamide, bicalutamide] | virtually all of the radioactivity in plasma | – | – |
| C[C@](O)(CS(=O)(=O)c1ccc(I)cc1)C(=O)Nc1ccc(C#N)c(C(F)(F)F)c1 [Compound 2] | – | 3.1 | 73 |
